These results are taken from US20230295260A1, “GLP RECEPTOR AGONISTS” (HEPTARES THERAPEUTICS LIMITED, priority 2020, published 2023).

As a reminder, the Emax is the size of the effect at its maximum, as opposed to the concentration needed.

Like-named read-outs stand apart in the source and are kept apart here. Starred links: 1 amine or outer side, 2 acyl side, 3 side chain; linkers in the order of their positions; H or OH if unused. Non-standard residues stand in square brackets, D forms with d. Residues, ends and D or L forms follow the SMILES beside them. Groups on a side chain read outwards from the residue. *: point of attachment. Malonyl(2,2-Me2,histaminyl) = CC(C)(C(=O)NCCc1cnc[nH]1)C(=O)*; Ala(1H-tetrazol-5-yl) = N[C@@H](Cc1nnn[nH]1)C(=O)O; C18 diacid = O=C(O)CCCCCCCCCCCCCCCCC(=O)*; γGlu = O=C(O)[C@H](CCC(=O)[*:2])N[*:1]; αMeL = CC(C)C[C@](C)(N)C(=O)O; Lauroyl = CCCCCCCCCCCC(=O)*; Nle = CCCC[C@H](N)C(=O)O; AEEA = NCCOCCOCC(=O)O; Aib = CC(C)(N)C(=O)O; Alloc = C=CCOC(=O)*; βAla = NCCC(=O)O

One assay concerns the target T1, human GLP1 receptor (Homo sapiens, UniProt P43220).
T1 construct: expressed in transfected cells; host or cells: HEK cells, BacMam virus transduction
The assay is described as follows: cAMP accumulation assay (HTRF), functional agonism of human GLP1 receptor in HEK cells. The format is cell-based. As to conditions: for EC50: read-out: Human GLP-1R agonist cAMP pEC50 (converted). (In general: Cyclic AMP is a second messenger, typically raised through Gs and lowered through Gi signalling.)

In another assay the target is T2, human GLP2 receptor (Homo sapiens, UniProt O95838).
T2 sequence (O95838 1-553): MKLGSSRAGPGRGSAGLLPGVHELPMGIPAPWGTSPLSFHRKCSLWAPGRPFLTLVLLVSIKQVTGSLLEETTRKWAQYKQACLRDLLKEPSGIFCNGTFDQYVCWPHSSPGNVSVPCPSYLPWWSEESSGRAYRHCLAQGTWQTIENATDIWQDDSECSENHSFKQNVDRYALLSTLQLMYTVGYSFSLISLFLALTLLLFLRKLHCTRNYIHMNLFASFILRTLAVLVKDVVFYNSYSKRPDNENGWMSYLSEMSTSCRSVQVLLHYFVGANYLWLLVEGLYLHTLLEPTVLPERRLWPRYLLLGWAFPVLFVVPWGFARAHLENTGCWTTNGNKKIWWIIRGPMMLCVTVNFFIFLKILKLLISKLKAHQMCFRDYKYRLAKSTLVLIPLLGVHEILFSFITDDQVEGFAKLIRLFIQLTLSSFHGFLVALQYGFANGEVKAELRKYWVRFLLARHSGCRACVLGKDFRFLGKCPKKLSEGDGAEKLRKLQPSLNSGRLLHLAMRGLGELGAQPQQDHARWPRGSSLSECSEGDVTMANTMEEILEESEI
Nature of the assay: cAMP accumulation assay (HTRF), functional agonism of human GLP2 receptor in HEK cells.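 For all read-outs here: HEK cells transduced via BacMam to express human GLP2 receptor, agonist-stimulated cAMP measured by HTRF after 45 min at 37 °C in HBSS with 0.5 mM IBMX.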 As to conditions: for Emax: HEK293, read-out: Human GLP-2R agonist cAMP Emax.

Where [1] appears, read: HEK293, HEK cells, human GLP1 receptor BacMam, 45 min 37° C., read-out: Human GLP-1R agonist cAMP Emax.
[2] abbreviates: HEK cells, human GLP1 receptor BacMam, 45 min 37° C.

T1 sequence (P43220 24-463): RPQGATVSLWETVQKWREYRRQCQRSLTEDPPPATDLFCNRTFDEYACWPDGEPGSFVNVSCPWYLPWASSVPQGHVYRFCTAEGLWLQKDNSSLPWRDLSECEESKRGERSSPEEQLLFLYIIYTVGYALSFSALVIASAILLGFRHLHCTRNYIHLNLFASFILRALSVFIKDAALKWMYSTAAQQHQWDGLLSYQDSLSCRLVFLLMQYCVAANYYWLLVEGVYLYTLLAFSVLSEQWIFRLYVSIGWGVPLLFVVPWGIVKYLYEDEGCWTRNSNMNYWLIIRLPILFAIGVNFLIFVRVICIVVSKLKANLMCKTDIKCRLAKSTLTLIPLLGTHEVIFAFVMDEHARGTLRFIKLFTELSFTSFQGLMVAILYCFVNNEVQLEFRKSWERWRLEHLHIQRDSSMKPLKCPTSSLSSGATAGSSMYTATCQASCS

For the compound `C=CCOC(=O)NCCCC[C@H](NC(=O)[C@](C)(CC(C)C)NC(=O)[C@H](CC(=O)O)NC(=O)[C@H](CC(C)C)NC(=O)[C@@H](NC(=O)[C@@H](NC(=O)[C@@H](Cc1ccccc1)NC(=O)[C@H](CCCC)NC(=O)[C@H](CCC(=O)O)NC(=O)[C@H](CC(=O)O)NC(=O)[C@H](CO)NC(=O)[C@H](Cc1ccccc1)NC(=O)[C@H](CO)NC(=O)CNC(=O)[C@H](Cc1nn[nH]n1)NC(=O)C(C)(C)C(=O)NCCc1c[nH]cn1)[C@@H](C)O)[C@@H](C)CC)C(=O)N[C@@H](C)C(=O)N[C@@H](C)C(=O)N[C@@H](CCCCN)C(=O)N[C@@H](CC(=O)O)C(=O)N[C@@H](Cc1ccccc1)C(=O)N[C@H](C(=O)N[C@@H](CC(N)=O)C(=O)N[C@@H](Cc1c[nH]c2ccccc12)C(=O)N[C@@H](CC(C)C)C(=O)N[C@H](C(=O)N[C@@H](CCC(N)=O)C(=O)N[C@H](C(=O)N[C@@H](CCCCN)C(=O)N[C@H](C(=O)N[C@H](C(=O)N[C@@H](CC(=O)O)C(N)=O)[C@@H](C)O)[C@@H](C)CC)[C@@H](C)O)[C@@H](C)CC)[C@@H](C)CC` [Example 19] ({Malonyl(2,2-Me2,histaminyl)}-[Ala(1H-tetrazol-5-yl)]GSFSDE[Nle][dF]TILD[αMeL]K(Alloc)AAKDFINWLIQTKITD-NH2), the Emax at human GLP1 receptor (setting [1]) came out at 92.7%; on human GLP2 receptor, 102%. Also, the values for the EC50 at human GLP1 receptor (setting [2]) and on human GLP2 receptor were 2.51 nM and 0.01 nM, respectively.
As for `CCCCCCCCCCCC(=O)NCCC(=O)NCCCC[C@H](NC(=O)[C@H](CC(N)=O)NC(=O)[C@H](CC(=O)O)NC(=O)[C@H](CC(C)C)NC(=O)[C@@H](NC(=O)[C@@H](NC(=O)[C@@H](Cc1ccccc1)NC(=O)[C@H](CCCC)NC(=O)[C@H](CCC(=O)O)NC(=O)[C@H](CC(=O)O)NC(=O)[C@H](CO)NC(=O)[C@H](Cc1ccccc1)NC(=O)[C@H](CO)NC(=O)[C@@H](C)NC(=O)[C@H](Cc1nn[nH]n1)NC(=O)C(C)(C)C(=O)NCCc1c[nH]cn1)[C@@H](C)O)[C@@H](C)CC)C(=O)NC(C)(C)C(=O)N[C@@H](C)C(=O)N[C@@H](CCCCN)C(=O)N[C@@H](CC(=O)O)C(=O)N[C@@H](Cc1ccccc1)C(=O)N[C@H](C(=O)N[C@@H](CC(N)=O)C(=O)N[C@@H](Cc1c[nH]c2ccccc12)C(=O)N[C@@H](CC(C)C)C(=O)N[C@H](C(=O)N[C@@H](CCC(N)=O)C(=O)N[C@H](C(=O)N[C@@H](CCCCN)C(=O)N[C@H](C(=O)N[C@H](C(=O)N[C@@H](Cc1ccccc1)C(N)=O)[C@@H](C)O)[C@@H](C)CC)[C@@H](C)O)[C@@H](C)CC)[C@@H](C)CC` [Example 21] ({Malonyl(2,2-Me2,histaminyl)}-[Ala(1H-tetrazol-5-yl)][dA]SFSDE[Nle][dF]TILDNK([βAla-Lauroyl])[Aib]AKDFINWLIQTKITF-NH2; C-terminus assumed), the Emax on human GLP1 receptor (HEK293, read-out: Human GLP-1R agonist cAMP Emax) is 91.5%; on human GLP2 receptor, 99.7%.
Turning to `CCCC[C@H](NC(=O)[C@H](CCC(=O)O)NC(=O)[C@H](CC(=O)O)NC(=O)[C@H](CO)NC(=O)[C@H](Cc1ccccc1)NC(=O)[C@H](CO)NC(=O)CNC(=O)[C@H](Cc1nn[nH]n1)NC(=O)C(C)(C)C(=O)NCCc1c[nH]cn1)C(=O)N[C@H](Cc1ccccc1)C(=O)N[C@H](C(=O)N[C@H](C(=O)N[C@@H](CC(C)C)C(=O)N[C@@H](CC(=O)O)C(=O)N[C@@H](CC(C)C)C(=O)N[C@@H](CCCCNC(=O)CC[C@H](NC(=O)COCCOCCNC(=O)COCCOCCNC(=O)CCCCCCCCCCCCCCCCC(=O)O)C(=O)O)C(=O)N[C@@H](C)C(=O)N[C@@H](C)C(=O)N[C@@H](CCCCN)C(=O)N[C@@H](CC(=O)O)C(=O)N[C@@H](Cc1ccccc1)C(=O)N[C@H](C(=O)N[C@@H](CC(N)=O)C(=O)N[C@@H](Cc1c[nH]c2ccccc12)C(=O)N[C@@H](CC(C)C)C(=O)N[C@H](C(=O)N[C@@H](CCC(N)=O)C(=O)N[C@H](C(=O)N[C@@H](CCCCN)C(=O)N[C@H](C(=O)N[C@H](C(=O)N[C@@H](CC(=O)O)C(N)=O)[C@@H](C)O)[C@@H](C)CC)[C@@H](C)O)[C@@H](C)CC)[C@@H](C)CC)[C@@H](C)CC)[C@@H](C)O` [Example 22] ({Malonyl(2,2-Me2,histaminyl)}-[Ala(1H-tetrazol-5-yl)]GSFSDE[Nle][dF]TILDLK([γGlu-AEEA-AEEA-C18 diacid])AAKDFINWLIQTKITD-NH2), the results for the maximum response (Emax) at human GLP1 receptor (setting [1]) and at human GLP2 receptor were 87.6% and 101%, respectively. Also, the results for the EC50 on human GLP1 receptor (setting [2]) and at human GLP2 receptor were 3.16 nM and 0.0158 nM, respectively.
For `CCCC[C@H](NC(=O)[C@H](CCC(=O)O)NC(=O)[C@H](CC(=O)O)NC(=O)[C@H](CO)NC(=O)[C@H](Cc1ccccc1)NC(=O)[C@H](CO)NC(=O)CNC(=O)[C@H](Cc1nn[nH]n1)NC(=O)C(C)(C)C(=O)NCCc1c[nH]cn1)C(=O)N[C@H](Cc1ccccc1)C(=O)N[C@H](C(=O)N[C@H](C(=O)N[C@@H](CC(C)C)C(=O)N[C@@H](CC(=O)O)C(=O)N[C@@H](CC(C)C)C(=O)N[C@@H](CCCCNC(=O)CC[C@H](NC(=O)COCCOCCNC(=O)COCCOCCNC(=O)CCCCCCCCCCCCCCCCC(=O)O)C(=O)O)C(=O)N[C@@H](C)C(=O)N[C@@H](C)C(=O)N[C@@H](CCCCN)C(=O)N[C@@H](CC(=O)O)C(=O)N[C@@H](Cc1ccccc1)C(=O)N[C@H](C(=O)N[C@@H](CC(N)=O)C(=O)N[C@@H](Cc1c[nH]c2ccccc12)C(=O)N[C@@H](CC(C)C)C(=O)N[C@H](C(=O)N[C@@H](CCC(N)=O)C(=O)N[C@H](C(=O)N[C@@H](CCCCN)C(=O)N[C@H](C(=O)N[C@H](C(=O)N[C@@H](Cc1ccccc1)C(N)=O)[C@@H](C)O)[C@@H](C)CC)[C@@H](C)O)[C@@H](C)CC)[C@@H](C)CC)[C@@H](C)CC)[C@@H](C)O` [Example 23] ({Malonyl(2,2-Me2,histaminyl)}-[Ala(1H-tetrazol-5-yl)]GSFSDE[Nle][dF]TILDLK([γGlu-AEEA-AEEA-C18 diacid])AAKDFINWLIQTKITF-NH2), in that order: 89.8%, 103%, 12.6 nM and 0.0316 nM.
On to Exendin-4 [reference compound], for which the “Human GLP-1R agonist cAMP Emax” value at human GLP1 receptor came to 99.7. The “Human GLP-2R agonist cAMP Emax” value at human GLP2 receptor (HEK cells, human GLP2 receptor BacMam, 45 min 37° C.) was determined as 1.6.
